In US11384066B1, “Heterocyclic compounds useful as aurora a selective inhibitors” (Jacobio Pharmaceuticals Co., Ltd., priority 2020, dated 2022):

What was measured:
Aurora A = Aurora A (Homo sapiens (Human), UniProt O14965); experiment: Aurora A kinase assay (mobility shift assay); type: biochemical
Procedure, shortened: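 Mobility shift assay of human Aurora A and Aurora B in 50 mM HEPES pH 7.5, 10 mM MgCl2, 2 mM DTT, 0.01% Brij-35. Enzyme was preincubated 10 min with compound at room temperature, then ATP plus kinase substrate 21 were added. Substrate conversion was read on a Caliper reader, normalized to no-enzyme and no-compound controls, and IC50 came from a variable-slope four-parameter fit.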

[1] = tested on: NCI-H446 human small cell lung cancer xenograft; experiment: In vivo anti-tumor efficacy, NCI-H446 xenograft model; parameters: species or system BALB/c nude mice; details: 15 mg/kg po., BID × 10days, QD × 19days, treatment 29 days, Table C does not say which xenograft (NCI-H446 or NCI-H69)
Protocol: This study is to examine the anti-tumor efficacy of test compounds in NCI-H446 and NCI-H69 human small cell lung cancer xenograft model in BALB/c nude mice. Each mouse was inoculated subcutaneously at the right flank region with NCI-H446 (3×10^6) and NCI-H69 cells (5×10^6) in 0.1 mL of PBS and Matrigel (1:1) for tumor development. The mouse were randomized according to tumor size and weight, the treatment began when the mean tumor size reached 100-200 mm^3. Anti-tumor activity was assessed according to relative tumor inhibition rate (TGI).
Tumor volumes were measured in two dimensions using a caliper, and the volume was expressed in mm^3 using the formula: V=0.5 a×b^2 where a and b are the long and short diameters of the tumor, respectively. Statistical analysis of difference in tumor volume among the groups were performed using one-way ANOVA. All data was analyzed using SPSS 22.0 software, p<0.05 was considered to be statistically significant.

NCI-H446 cells = experiment: Cell proliferation assay (CellTiter-Glo), NCI-H446; type: cell-based; details: Homo sapiens, NCI-H446, 120 h, 5 days
Protocol: (§1) Example B: Cell Proliferation Assay
(§2) NCI-H2171 and NCI-H446 cell proliferation analysis were conducted by CellTiter-Glo (Promega, Cat #G1111). The cells will be harvested respectively during the logarithmic growth period and counted with hemocytometer. […] Adjust NCI-H2171 and NCI-H446 cells concentrations to 1.0×10^5 cells/mL with complete medium (RPMI-1640 medium supplemented with 10% (v/v) fetal bovine serum). 100 μL/cell suspensions were added to 96-well plates, and the final cell densities were 1.0×10^4 cells/well. The plate will be cultured overnight in 5% CO2 and 95% humidity at 37° C. The next day, the test compound was dissolved in DMSO as stock solution. Then the different concentrations of compound were added into 96-well plates. The plates will be cultured for 5 days, then measured by means of CellTiter-Glo assay. 50 μL/cell CellTiter-Glo reagent was added into 96-well plates. Shock incubation for 5 min and then stand incubation for 10 min at room temperature. Record the Luminosity values using an microplate spectrophotometer (Spark, Tecan). Fit the data using GraphPad 8.0 and obtain IC50 values.
(§3) Formula: Survival (%)=(Lumtest−Lummedia control)/(Lumcell control−Lummedia control)×100%

PK in rat = type: in vivo; details: rat, plasma, SD male rats
Protocol: The compounds were dissolved into 10% DMSO, 30% PEG400, and 60% saline to obtain a solution. SD male rats were given the compound orally and intravenously. Then plasma samples were collected at 0 hour (pre-dose), 0.25, 0.5, 1, 2, 4, 7, 24 hours post-dose. Plasma drug concentration was detected by LC-MS/MS. Pharmacokinetic parameters were calculated using WinNonlin's software with non-compartmental model.

Aurora B = Aurora B (Homo sapiens (Human), UniProt Q96GD4); experiment: Aurora B kinase assay (mobility shift assay); type: biochemical; details: ratio of Aurora B IC50 to Aurora A IC50
Chain of Aurora B (Q96GD4 whole entry): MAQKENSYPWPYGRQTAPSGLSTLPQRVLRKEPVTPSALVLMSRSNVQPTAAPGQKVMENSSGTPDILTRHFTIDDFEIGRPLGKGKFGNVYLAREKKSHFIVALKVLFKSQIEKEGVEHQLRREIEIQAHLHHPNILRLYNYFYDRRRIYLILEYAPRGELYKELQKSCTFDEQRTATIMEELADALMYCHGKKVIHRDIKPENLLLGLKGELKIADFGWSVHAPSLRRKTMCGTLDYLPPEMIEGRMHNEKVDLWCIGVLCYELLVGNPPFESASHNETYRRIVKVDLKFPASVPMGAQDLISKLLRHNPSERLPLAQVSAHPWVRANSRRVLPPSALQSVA

NCI-H2171 cells = experiment: Cell proliferation assay (CellTiter-Glo), NCI-H2171; type: cell-based; details: Homo sapiens, NCI-H2171, 120 h, 5 days
Protocol: as §1, §2, §3

Chain of Aurora A (O14965 whole entry): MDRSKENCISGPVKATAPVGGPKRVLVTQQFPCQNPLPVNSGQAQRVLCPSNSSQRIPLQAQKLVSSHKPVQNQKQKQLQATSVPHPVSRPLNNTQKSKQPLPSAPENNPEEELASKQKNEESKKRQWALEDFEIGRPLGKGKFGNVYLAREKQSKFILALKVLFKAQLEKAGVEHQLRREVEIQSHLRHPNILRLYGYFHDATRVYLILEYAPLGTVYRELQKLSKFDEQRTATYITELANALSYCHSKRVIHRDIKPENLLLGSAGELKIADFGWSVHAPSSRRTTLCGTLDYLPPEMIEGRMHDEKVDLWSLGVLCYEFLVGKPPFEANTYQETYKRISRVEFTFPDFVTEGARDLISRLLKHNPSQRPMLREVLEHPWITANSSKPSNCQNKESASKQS

With `Cc1cc(Nc2nc(C[C@@]3(C(=O)O)CCN(Cc4cccc(Cl)c4F)[C@H](C)C3)cc(C)c2F)n[nH]1` [Example 78, (2R,4R)-1-(3-chloro-2-fluorobenzyl)-4-((5-fluoro-4-methyl-6-((5-methyl-1H-pyrazol-3-yl)amino)pyridin-2-yl)methyl)-2-methylpiperidine-4-carboxylic acid] the IC50 (Aurora A) was 0.37 nM, the “TGITV(%)” value [1] was 96% and the “TV (mm^3)” value ([1]; mean ± sem) was 65 ± 14 mm^3. It also gave an IC50 (NCI-H446 cells) of 32 nM, a clearance (PK in rat; IV: 3 mg/kg) of 0.585 mL/min/kg and a Vd (PK in rat; IV: 3 mg/kg, read-out: Vss) of 0.22 L/kg. The AUC(0-t) (PK in rat; PO: 10 mg/kg) was 236 µg·h/mL, the half-life (PK in rat; PO: 10 mg/kg) was 4.61 h and the bioavailability (PK in rat; PO: 10 mg/kg vs IV: 3 mg/kg) was 85.8%. The Cmax (PK in rat; PO: 10 mg/kg, read-out: Cmax) was 28900 ng/mL, the “IC50 Ratio Aur B/Aur A” value (Aurora B) was 1219 and the IC50 (NCI-H2171 cells) was 13 nM.
